Test results as given in patent US8901072B2, “Glycopeptide and lipoglycopeptide antibiotics with improved solubility” (The Medicines Company, priority 2009, dated 2014).
Converted amounts (≈) assume the structure as drawn. “And” between values parts separate entries of the source, which are not always exact repeats. Equal values may be shown once. Read-outs that look alike come from different tables or passages of the source.

Tests used:
[1] = Solubility in phosphate buffered saline; assay type: physicochemical; details: 10 mM phosphate buffered saline (0.138 M NaCl, 2.7 mM KCl), pH 7.4
Protocol: To a sample of the material of known mass were added known volumes of phosphate buffered saline until complete dissolution is observed. Suspensions were centrifuged for 5 min at 10000 rpm. […] Upon complete dissolution, the solution is diluted until the final concentration is 0.5 mg/mL to ensure that the material remains soluble over the entire range of concentrations.

S. aureus ATCC 13709 = test: In vitro antibacterial susceptibility (MIC, broth microdilution); assay type: cell-based; details: for MIC against S. aureus ATCC 13709, CAMHB: cation-adjusted Mueller-Hinton broth, 37° C., 18 h; for Antibacterial activity compared with oritavancin 5: deduced from the MIC data of Table 2; for MIC: Staphylococcus aureus
Protocol: Susceptibility of S. aureus strain ATCC13709 to oritavancin (5) and synthesized compounds was determined following the guidelines set by the Clinical and Laboratory Standards Institute (formerly the National Committee for Clinical Laboratory Standards) (M26-A). Compounds were serially diluted two-fold in either DMSO (Oritavancin 5) or in PBS and transferred to cation-adjusted Mueller Hinton broth (CAMHB; Becton Dickinson). 50 μL of compounds diluted in CAMHB was mixed with 100 μL of bacteria diluted in CAMHB in 96-well microtiter plates. The final number of micro-organisms in the assay was 5×10^5 c.f.u. per mL and the final concentration of DMSO in the assay, if present, was 1.25%. All solutions may contain 0.002% Tween as indicated. Assays were set up in duplicate and incubated at 37° C. for 18 h. The concentration of compound that inhibited visible growth was reported as the minimum inhibitory concentration (MIC).

[2] = system: S. aureus strain ATCC13709; test: Neutropenic mouse thigh infection model; assay type: in vivo, mice; details: for In vivo antibacterial efficacy compared with oritavancin: deduced from the data of Table 3; for Recovered bacterial titers per thigh, 1 mg/kg / Recovered bacterial titers per thigh, 10 mg/kg / Recovered bacterial titers per thigh, 40 mg/kg: neutropenic mice, 24 h postinfection; for Recovered bacterial titers per thigh, 1 mg/kg: 1 mg/kg one hour after inoculation; for Recovered bacterial titers per thigh, 10 mg/kg: 10 mg/kg one hour after inoculation; for Recovered bacterial titers per thigh, 40 mg/kg: 40 mg/kg one hour after inoculation
Protocol: The susceptibility of S. aureus strain ATCC13709 to oritavancin (5) and selected synthesized compounds in vivo was evaluated with the well accepted neutropenic mouse thigh infection model (Craig, W. A. et al. Journal of Antimicrobial Chemotherapy (1991), 27 (Suppl. C):29-40). Mice were made neutropenic by treatment with cyclophosphamide (150 and 100 mg/kg of body weight administered intraperitoneally 4 days and 1 day prior to infection). Mice were anesthetized briefly with approximately 4% isoflurane just prior to inoculation. The bacterial suspension (0.1 mL) was injected intramuscularly into each thigh (approximately 10^5 colony forming units (CFU)/thigh). The selected agents were administered in 10% (w/w) β-hydroxypropylcyclodextrin in water at a concentration of 10 mg/mL one hour following bacterial inoculation. The animals were humanely sacrificed by CO2 asphyxiation 24 h postinfection. The entire thigh muscle mass including the bone was homogenized and diluted in 0.9% saline and aliquots were plated on Brain-Heart Infusion agar. Following overnight incubation at 37° C., bacteria were enumerated for each thigh and expressed as log10 CFU per thigh. This was performed over three independent experiments and oritavancin (5) was used as a comparator in each.

CNC(CC(C)C)C(=O)NC1C(=O)NC(CC(N)=O)C(=O)NC2C(=O)NC3C(=O)NC(C(=O)NC(C(=O)SCC(=O)NCCCN)c4cc(O)cc(O)c4-c4cc3ccc4O)C(OC3CC(C)(N)C(O)C(C)O3)c3ccc(c(Cl)c3)Oc3cc2cc(c3OC2OC(CO)C(O)C(O)C2OC2CC(C)(NCc3ccc(-c4ccc(Cl)cc4)cc3)C(O)C(C)O2)Oc2ccc(cc2Cl)C1O (stereo not shown) [Compound 93]
Solubility (mg/mL) PBS [1]: ≧100 mg/mL
MIC against S. aureus ATCC 13709, CAMHB + 0.002% tween (S. aureus ATCC 13709): 0.125 µg/mL
MIC against S. aureus ATCC 13709, CAMHB + 50% human serum (S. aureus ATCC 13709): 0.25 µg/mL
MIC against S. aureus ATCC 13709, CAMHB + 50% mouse serum (S. aureus ATCC 13709): 1 µg/mL
MIC against S. aureus ATCC 13709, CAMHB (S. aureus ATCC 13709): 0.5 µg/mL (≈ 0.26 µM)
Antibacterial activity compared with oritavancin 5 (S. aureus ATCC 13709): within an order of magnitude of that of oritavancin 5
In vivo antibacterial efficacy compared with oritavancin [2]: within the same order of magnitude than oritavancin itself
Recovered bacterial titers per thigh, 1 mg/kg [2]: 8.53 ± 0.49 Log10 CFU/thigh
Recovered bacterial titers per thigh, 10 mg/kg [2]: 4.45 ± 1.68 Log10 CFU/thigh
Recovered bacterial titers per thigh, 40 mg/kg [2]: 4.18 ± 1.70 Log10 CFU/thigh

CNC(CC(C)C)C(=O)NC1C(=O)NC(CC(N)=O)C(=O)NC2C(=O)NC3C(=O)NC(C(=O)NC(C(=O)OCC(=O)NCCCN)c4cc(O)cc(O)c4-c4cc3ccc4O)C(OC3CC(C)(N)C(O)C(C)O3)c3ccc(c(Cl)c3)Oc3cc2cc(c3OC2OC(CO)C(O)C(O)C2OC2CC(C)(NCc3ccc(-c4ccc(Cl)cc4)cc3)C(O)C(C)O2)Oc2ccc(cc2Cl)C1O (stereo not shown) [Compound 90b]
Solubility (mg/mL) PBS [1]: ≧100 mg/mL
MIC against S. aureus ATCC 13709, CAMHB + 0.002% tween (S. aureus ATCC 13709): 0.5 µg/mL
MIC against S. aureus ATCC 13709, CAMHB + 50% human serum (S. aureus ATCC 13709): 0.25 µg/mL
MIC against S. aureus ATCC 13709, CAMHB + 50% mouse serum (S. aureus ATCC 13709): 0.5 µg/mL
MIC against S. aureus ATCC 13709, CAMHB (S. aureus ATCC 13709): 1 µg/mL (≈ 0.524 µM)
Antibacterial activity compared with oritavancin 5 (S. aureus ATCC 13709): within an order of magnitude of that of oritavancin 5
Recovered bacterial titers per thigh, 1 mg/kg [2]: 8.61 ± 0.16 Log10 CFU/thigh
Recovered bacterial titers per thigh, 10 mg/kg [2]: 6.44 ± 1.82 Log10 CFU/thigh
Recovered bacterial titers per thigh, 40 mg/kg [2]: 2.97 ± 2.35 Log10 CFU/thigh

CNC(CC(C)C)C(=O)NC1C(=O)NC(CC(N)=O)C(=O)NC2C(=O)NC3C(=O)NC(C(=O)NC(C(=O)OCC[N+](C)(C)C)c4cc(O)cc(O)c4-c4cc3ccc4O)C(OC3CC(C)(N)C(O)C(C)O3)c3ccc(c(Cl)c3)Oc3cc2cc(c3OC2OC(CO)C(O)C(O)C2OC2CC(C)(NCc3ccc(-c4ccc(Cl)cc4)cc3)C(O)C(C)O2)Oc2ccc(cc2Cl)C1O (stereo not shown) [Compound 95]
Solubility (mg/mL) PBS [1]: ≧100 mg/mL
MIC against S. aureus ATCC 13709, CAMHB + 0.002% tween (S. aureus ATCC 13709): 0.25 µg/mL
MIC against S. aureus ATCC 13709, CAMHB + 50% human serum (S. aureus ATCC 13709): 0.5 µg/mL
MIC against S. aureus ATCC 13709, CAMHB + 50% mouse serum (S. aureus ATCC 13709): 2 µg/mL
MIC against S. aureus ATCC 13709, CAMHB + 50% rat serum (S. aureus ATCC 13709; CAMHB + 50% rat serum): 0.125 µg/mL
MIC against S. aureus ATCC 13709, CAMHB (S. aureus ATCC 13709): 1 µg/mL
Antibacterial activity compared with oritavancin 5 (S. aureus ATCC 13709): within an order of magnitude of that of oritavancin 5
In vivo antibacterial efficacy compared with oritavancin [2]: within the same order of magnitude than oritavancin itself
Recovered bacterial titers per thigh, 1 mg/kg [2]: 8.32 ± 0.17 Log10 CFU/thigh
Recovered bacterial titers per thigh, 10 mg/kg [2]: 3.95 ± 1.57 Log10 CFU/thigh
Recovered bacterial titers per thigh, 40 mg/kg [2]: 2.96 ± 0.96 Log10 CFU/thigh

CNC(CC(C)C)C(=O)NC1C(=O)NC(CC(N)=O)C(=O)NC2C(=O)NC3C(=O)NC(C(=O)NC(C(=O)OCC(=O)NCCN)c4cc(O)cc(O)c4-c4cc3ccc4O)C(OC3CC(C)(N)C(O)C(C)O3)c3ccc(c(Cl)c3)Oc3cc2cc(c3OC2OC(CO)C(O)C(O)C2OC2CC(C)(NCc3ccc(-c4ccc(Cl)cc4)cc3)C(O)C(C)O2)Oc2ccc(cc2Cl)C1O (stereo not shown) [Compound 90a]
Solubility (mg/mL) PBS [1]: ≧100 mg/mL
MIC against S. aureus ATCC 13709, CAMHB + 0.002% tween (S. aureus ATCC 13709): 0.5 µg/mL
MIC against S. aureus ATCC 13709, CAMHB + 50% human serum (S. aureus ATCC 13709): 0.25 µg/mL
MIC against S. aureus ATCC 13709, CAMHB + 50% mouse serum (S. aureus ATCC 13709): 0.5 µg/mL
MIC against S. aureus ATCC 13709, CAMHB (S. aureus ATCC 13709): 1 µg/mL (≈ 0.528 µM)
Antibacterial activity compared with oritavancin 5 (S. aureus ATCC 13709): within an order of magnitude of that of oritavancin 5
Recovered bacterial titers per thigh, 1 mg/kg [2]: 8.38 ± 0.23 Log10 CFU/thigh
Recovered bacterial titers per thigh, 10 mg/kg [2]: 6.13 ± 2.53 Log10 CFU/thigh
Recovered bacterial titers per thigh, 40 mg/kg [2]: 5.27 ± 2.66 Log10 CFU/thigh

CN[C@H](CC(C)C)C(=O)N[C@H]1C(=O)N[C@@H](CC(N)=O)C(=O)N[C@H]2C(=O)N[C@H]3C(=O)N[C@H](C(=O)N[C@H](C(=O)O)c4cc(O)cc(O)c4-c4cc3ccc4O)[C@H](O[C@H]3C[C@](C)(N)[C@@H](O)[C@H](C)O3)c3ccc(c(Cl)c3)Oc3cc2cc(c3O[C@@H]2O[C@H](CO)[C@@H](O)[C@H](O)[C@H]2O[C@H]2C[C@](C)(NCc3ccc(-c4ccc(Cl)cc4)cc3)[C@@H](O)[C@H](C)O2)Oc2ccc(cc2Cl)[C@H]1O [Oritavancin (5), oritavancin, reference compound]
Solubility (mg/mL) PBS [1]: <0.1 mg/mL
solubility ([1]; aqueous buffer, thermodynamic from solid, read-out: Solubility (mg/mL) PBS): < 0.1 mg/mL
MIC (S. aureus ATCC 13709; ATCC13709, 18 h, read-out: MIC against S. aureus ATCC 13709, CAMHB): 1 µg/mL (≈ 0.558 µM)
MIC (S. aureus ATCC 13709; ATCC13709, read-out: MIC against S. aureus ATCC 13709, CAMHB + 0.002% tween): 0.125 µg/mL
MIC (S. aureus ATCC 13709; ATCC13709, read-out: MIC against S. aureus ATCC 13709, CAMHB + 50% human serum): 0.125 µg/mL
MIC (S. aureus ATCC 13709; ATCC13709, read-out: MIC against S. aureus ATCC 13709, CAMHB + 50% mouse serum): 0.25 µg/mL
MIC (S. aureus ATCC 13709; ATCC13709, read-out: MIC against S. aureus ATCC 13709, CAMHB + 50% rat serum): 0.25 µg/mL
Recovered bacterial titers per thigh, 1 mg/kg ([2]; 1 mg/kg): 8.16 ± 0.38 Log10 CFU/thigh and 7.96 ± 0.93 Log10 CFU/thigh and 7.98 ± 0.11 Log10 CFU/thigh
Recovered bacterial titers per thigh, 10 mg/kg ([2]; 10 mg/kg): 5.19 ± 1.86 Log10 CFU/thigh and 3.81 ± 1.16 Log10 CFU/thigh and 3.03 ± 0.53 Log10 CFU/thigh
Recovered bacterial titers per thigh, 40 mg/kg ([2]; 40 mg/kg): 2.62 ± 0.18 Log10 CFU/thigh and 2.62 ± 0.51 Log10 CFU/thigh and 2.29 ± 0.70 Log10 CFU/thigh
